In patent US20250127752A1, “REDUCED REBOUND EFFECTS IN SUBJECTS TREATED FOR OVERWEIGHT OR OBESITY” (Empros Pharma AB, priority 2021, published 2025):
Like-named read-outs stand apart in the source and are kept apart here.

Assays:
[1] = oral, conventional dosage form; cited from earlier work
[2] = Pre-dose (trough) plasma level of orlistat and acarbose at steady state, week 26; type: in vivo, human; settings: steady state week 26, patients on active treatment
[3] = cited from earlier work; for Placebo adjusted reduction of body weight: oral administration for 6 months; for Additional weight loss relative to placebo: at one year, on average
[4] = cited from earlier work
[5] = cited from earlier work; remark: listed apart in the source

OCCN1C[C@H](O)[C@@H](O)[C@H](O)[C@H]1CO [Miglitol]
Fraction of the dose absorbed [1]: 100%

C[C@H]1O[C@H](O[C@H]2[C@H](O)[C@@H](O)[C@@H](O[C@H]3[C@H](O)[C@@H](O)C(O)O[C@@H]3CO)O[C@@H]2CO)[C@H](O)[C@@H](O)[C@@H]1N[C@H]1C=C(CO)[C@@H](O)[C@H](O)[C@H]1O (stereo partly drawn) [acarbose, O-4,6-Dideoxy-4-[[(1S,4R,5S,6S)-4,5,6-trihydroxy-3-(hydroxymethyl)cyclohex-2-enyl]amino]-α-D-glucopyranosyl-(1→4)-O-α-D-gluco-pyranosyl-(1→4)-D-glucopyranose]
Patients in whom low plasma levels were measured [2]: 3 of 75 | Placebo adjusted reduction of body weight [3]: approx. 0.5%

C[C@H]1CNCCc2ccc(Cl)cc21 [lorcaserin]
Additional weight loss relative to placebo [3]: ~3% | Body weight decrease more than placebo ([3]; human, in vivo): about 3.2 kg | Body weight decrease more than placebo, of initial body weight ([3]; human, in vivo): about 3.2%

CCCCCCCCCCC[C@@H](C[C@@H]1OC(=O)[C@H]1CCCCCC)OC(=O)[C@H](CC(C)C)NC=O [orlistat, (S)—((S)-1-((2S,3S)-3-Hexyl-4-oxooxetan-2-yl)tridecan-2-yl) 2-formamido-4-methylpentanoate]
Patients in whom low plasma levels were measured [2]: 27 of 75 | Additional weight loss relative to placebo [3]: ~3% | Approximate relative weight loss ([3]; conventional dosage forms): 2-3% | Placebo adjusted reduction of body weight [3]: 2-3% | Relative weight loss, best case scenario ([3]; versus placebo 6%): 10% | Solubility in water [4]: practically insoluble in water | Water solubility [4]: less than 0.001 g/ml | Fraction of the dose absorbed [1]: < 3% | Plasma exposure [1]: < 5 ng/mL | Patients complaining about GI side-effects (diarrhea, oily spotting, fecal urgency) ([5]; clinical trials, conventional dosage form): ≥ 25% | Participants reporting faecal incontinence ([5]; similar 6-month trial): 5% | Participants reporting faecal incontinence ([5]; trials of longer duration): approximately 18%
